This note sets out measurements from ChEMBL document CHEMBL1201862, “PubChem BioAssay data set” (2004).

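Grown in 96-well plates, cells were treated for 48 hours with each compound at five concentrations. Insufficient inhibition: endpoint recorded as highest concentration tested. GI50 is the concentration that inhibits growth by half.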 The source made the active and inactive calls. Cut-off read from the data, not from the text of the source: active = GI50 up to about 1.1 µM and inactive = higher.

Some test systems named below: 786-0; A498; COLO 205; DU-145; HL-60; HT-29; IGROV-1; K562; LOX IMVI; MCF7; MDA-MB-435; MDA-N; NCI-H460; PC-3; RPMI-8226; SF-295; SF-539; SNB-19; UACC-257; UACC-62.
Holding throughout (experiment): NCI anticancer screen, dose series, 48 h

For `COC(=O)c1oc([N+](=O)[O-])c(Cl)c1Cl`, the GI50 with 786-0 was 4.14 µM (inactive); with A498, 15.1 µM (inactive); in the assay on COLO 205, 4.12 µM (inactive); with DU-145, 17.6 µM (inactive); in the assay on HL-60 it was 1.34 µM (inactive); in the assay on HT-29, 16.5 µM (inactive). Besides, the GI50 in the assay on IGROV-1 is 7.67 µM (inactive); in the assay on K562, 2.56 µM (inactive); with LOX IMVI, 6.05 µM (inactive); with MCF7 it was 2.04 µM (inactive); in the assay on MDA-MB-435, 7.8 µM (inactive); with MDA-N it was 7.98 µM (inactive). The GI50 is 17.2 µM (inactive) in the assay with NCI-H460; 8.34 µM (inactive) in the assay on PC-3; 3.96 µM (inactive) in the assay on RPMI-8226; 11.8 µM (inactive) in the assay with SF-295; 6.01 µM (inactive) with SF-539; 18.7 µM (inactive) in the assay on SNB-19. In addition, the GI50 was 7.89 µM (inactive) in the assay with UACC-257 and 8.47 µM (inactive) in the assay with UACC-62.

On to `NC(=O)c1nnc2ccc(F)cc2c1N`, for which the GI50 with 786-0, with A498, in the assay with COLO 205, in the assay on DU-145, with HL-60 and with HT-29 was > 100 µM (inactive) throughout. Besides, the GI50 with IGROV-1 is > 100 µM (inactive); with K562, > 100 µM (inactive); in the assay on LOX IMVI, 69 µM (inactive); in the assay on MCF7, > 100 µM (inactive); with MDA-MB-435 it was > 100 µM (inactive); in the assay on MDA-N, > 100 µM (inactive). Also, the GI50 with NCI-H460, with PC-3, in the assay on RPMI-8226, in the assay on SF-295, with SF-539 and in the assay with SNB-19 was > 100 µM (inactive) in each case. Further, the GI50 with UACC-257 and with UACC-62 was > 100 µM (inactive) each time.

Turning to `CCOC(=O)CCC(NC(=O)c1ccc(OCc2nc3cc(C(F)(F)F)ccc3nc2-c2ccccc2)cc1)C(=O)OCC` (stereo not given), the GI50 is > 100 µM (inactive) in the assay with 786-0; > 100 µM (inactive) in the assay with A498; 17.9 µM (inactive) in the assay on COLO 205; 86.1 µM (inactive) in the assay with DU-145; > 100 µM (inactive) in the assay on HL-60; > 100 µM (inactive) in the assay on HT-29. In addition, the GI50 was 75.2 µM (inactive) with IGROV-1; 46.6 µM (inactive) with K562; > 100 µM (inactive) with LOX IMVI; 5.37 µM (inactive) with MCF7; 84.1 µM (inactive) in the assay with MDA-MB-435; 55.5 µM (inactive) in the assay on MDA-N. For the same compound, the GI50 in the assay with NCI-H460 was 52.1 µM (inactive); with PC-3, 42.7 µM (inactive); in the assay on RPMI-8226, 43.9 µM (inactive); with SF-295, 40.6 µM (inactive); in the assay on SF-539, > 100 µM (inactive); in the assay on SNB-19, > 100 µM (inactive). Further, the GI50 is 67.3 µM (inactive) with UACC-257 and 52.8 µM (inactive) with UACC-62.

In the case of `Nn1c(-c2ccccc2)n[nH]c1=O`, the GI50 with 786-0, in the assay on A498, in the assay on COLO 205, with DU-145, with HL-60 and with HT-29 was > 100 µM (inactive) in each case. Besides, the GI50 in the assay with IGROV-1 was > 100 µM (inactive); in the assay with K562, > 10 µM (inactive); with LOX IMVI it was > 100 µM (inactive); with MCF7, > 100 µM (inactive); in the assay with MDA-MB-435 it was > 100 µM (inactive); in the assay on MDA-N, > 100 µM (inactive). For the same compound, the GI50 in the assay with NCI-H460, in the assay with PC-3, in the assay with RPMI-8226, in the assay on SF-295, in the assay on SF-539 and in the assay with SNB-19 was > 100 µM (inactive) each time. Moreover, the GI50 in the assay on UACC-257 and in the assay with UACC-62 was > 100 µM (inactive) throughout.

With `C(/c1ccco1)=c1/nc(-c2ccccc2)n2c1nc1ccccc12`, the GI50 was 11 µM (inactive) in the assay with 786-0; > 100 µM (inactive) in the assay with A498; 98.9 µM (inactive) in the assay with COLO 205; > 100 µM (inactive) with DU-145; > 100 µM (inactive) in the assay on HL-60; 26.6 µM (inactive) in the assay on HT-29. The GI50 is 11.3 µM (inactive) in the assay on IGROV-1; 20.9 µM (inactive) in the assay with K562; 42.4 µM (inactive) in the assay on LOX IMVI; 42.6 µM (inactive) in the assay with MCF7; 14.4 µM (inactive) in the assay on MDA-MB-435; 17.6 µM (inactive) in the assay on MDA-N. The GI50 in the assay with NCI-H460 was 39.2 µM (inactive); in the assay on PC-3, 1.04 µM (active); in the assay on RPMI-8226 it was 11.2 µM (inactive); in the assay on SF-295, 12.9 µM (inactive); with SF-539 it was 24.3 µM (inactive); in the assay on SNB-19, > 100 µM (inactive). Besides, the GI50 with UACC-257 is > 100 µM (inactive); with UACC-62, 63.1 µM (inactive).

Regarding `CC12CCC(C1)C(C)(C)C2OC(=O)c1ccccc1N` (stereo not given), the GI50 in the assay on 786-0 is 16.6 µM (inactive); in the assay with A498, 15.2 µM (inactive); in the assay on COLO 205 it was 15.4 µM (inactive); with DU-145 it was 16.4 µM (inactive); with HL-60 it was 12.9 µM (inactive); in the assay with HT-29 it was 14.9 µM (inactive). The GI50 was 25.8 µM (inactive) in the assay with IGROV-1; 14.9 µM (inactive) in the assay with K562; 18.2 µM (inactive) with LOX IMVI; 16.5 µM (inactive) in the assay with MCF7; 16.7 µM (inactive) with MDA-MB-435; 15.5 µM (inactive) with MDA-N. Also, the GI50 is 15.7 µM (inactive) with NCI-H460; 14.3 µM (inactive) in the assay with PC-3; 2.9 µM (inactive) in the assay with RPMI-8226; 17.3 µM (inactive) with SF-295; 18.6 µM (inactive) in the assay on SF-539; 17.2 µM (inactive) in the assay with SNB-19. Moreover, the GI50 was 15.4 µM (inactive) in the assay with UACC-257 and 15.5 µM (inactive) in the assay with UACC-62.

Consider `O=S1(=O)CCN(Cc2ccccc2)/C1=N\S(=O)(=O)c1ccc(Cl)cc1`, for which the GI50 in the assay with 786-0 was 19.7 µM (inactive); with A498, 28.5 µM (inactive); in the assay on COLO 205, 19.4 µM (inactive); in the assay with DU-145, 20.5 µM (inactive); with HL-60, 22.8 µM (inactive); in the assay with HT-29 it was 17.9 µM (inactive). The GI50 in the assay on IGROV-1 is 17.8 µM (inactive); in the assay on K562 it was 35.6 µM (inactive); with LOX IMVI it was 18.1 µM (inactive); in the assay with MCF7 it was 22.8 µM (inactive); in the assay with MDA-MB-435 it was 19.1 µM (inactive); with MDA-N it was 18.2 µM (inactive). In addition, the GI50 with NCI-H460 was 22.3 µM (inactive); in the assay with PC-3 it was 18 µM (inactive); with RPMI-8226, 25.8 µM (inactive); in the assay with SF-295 it was 48.2 µM (inactive); with SF-539, 18.7 µM (inactive); in the assay with SNB-19, 57 µM (inactive). Besides, the GI50 with UACC-257 was 20.7 µM (inactive); in the assay on UACC-62, 17.8 µM (inactive).

As for `CC1=C[C@H](C[C@]2(C)c3c(c4c(C)cccc4oc3=O)O[C@@H]2C)OC1=O`, the GI50 was 22.8 µM (inactive) in the assay on 786-0; > 100 µM (inactive) with A498; 49.9 µM (inactive) with COLO 205; > 100 µM (inactive) with DU-145; 22.5 µM (inactive) in the assay on HL-60; 35.6 µM (inactive) in the assay on HT-29. For the same compound, the GI50 in the assay on IGROV-1 was > 100 µM (inactive); in the assay on K562 it was 28 µM (inactive); in the assay with LOX IMVI, 34.3 µM (inactive); in the assay with MCF7, 52.6 µM (inactive); in the assay with MDA-MB-435 it was 41.7 µM (inactive); in the assay on MDA-N, 36.6 µM (inactive). Moreover, the GI50 in the assay with NCI-H460 is > 100 µM (inactive); with PC-3, > 100 µM (inactive); with RPMI-8226, 0.0778 µM (active); in the assay with SF-295 it was > 100 µM (inactive); in the assay on SF-539 it was > 100 µM (inactive); with SNB-19, > 100 µM (inactive). The GI50 is > 100 µM (inactive) in the assay with UACC-257 and 73.1 µM (inactive) in the assay on UACC-62.

In the case of `O=C1Cc2c([nH]c3c(Br)cccc23)-c2ccccc2N1`, the GI50 in the assay on 786-0 is > 100 µM (inactive); in the assay with A498, > 100 µM (inactive); with COLO 205, 27.8 µM (inactive); with DU-145 it was > 100 µM (inactive); with HL-60, 21.5 µM (inactive); in the assay on HT-29, 59.8 µM (inactive). Further, the GI50 with IGROV-1 was > 100 µM (inactive); in the assay with K562, 18.2 µM (inactive); in the assay on LOX IMVI, 25.8 µM (inactive); with MCF7, 24.6 µM (inactive); with MDA-MB-435, > 100 µM (inactive); in the assay on MDA-N it was > 100 µM (inactive). Moreover, the GI50 in the assay on NCI-H460 is 45.9 µM (inactive); with PC-3, 49.8 µM (inactive); in the assay with RPMI-8226, 32.5 µM (inactive); with SF-295, > 100 µM (inactive); in the assay with SF-539 it was 49.5 µM (inactive); in the assay on SNB-19 it was 43.6 µM (inactive). Besides, the GI50 in the assay on UACC-257 is > 100 µM (inactive); with UACC-62, 48.8 µM (inactive).

As for `C[N+](C)([O-])CCCNc1ccnc2cccc([N+](=O)[O-])c12`, the GI50 is > 100 µM (inactive) with 786-0; 51.3 µM (inactive) with A498; 20.7 µM (inactive) in the assay with COLO 205; 20.9 µM (inactive) in the assay on DU-145; 20.2 µM (inactive) in the assay on HL-60; 32.9 µM (inactive) in the assay with HT-29. In addition, the GI50 in the assay on IGROV-1 is 46 µM (inactive); in the assay on K562, 38.5 µM (inactive); with LOX IMVI, 28.2 µM (inactive); with MCF7 it was 27.4 µM (inactive); in the assay on MDA-MB-435 it was 46.2 µM (inactive); in the assay with MDA-N, 30.6 µM (inactive). For the same compound, the GI50 in the assay with NCI-H460 was 15.5 µM (inactive); in the assay on PC-3, 45.8 µM (inactive); in the assay with RPMI-8226, 21.5 µM (inactive); in the assay on SF-295 it was 92.7 µM (inactive); in the assay on SF-539 it was 22 µM (inactive); with SNB-19 it was > 100 µM (inactive). For the same compound, the GI50 in the assay with UACC-257 was 45.8 µM (inactive); in the assay with UACC-62, 31.3 µM (inactive).
